# Entries after “also recorded” stand apart in the source; their conditions may differ.
# Assays:
# [1] = test system: Propionibacterium acnes strain ATCC 6919; assay: CFU assay of antimicrobial activity against P. acnes; format: cell-based; settings: for reduction of the number of viable P. acnes: 100 μM of peptide (FIG. 1B)
# Method: CFU assay. The CFU assay was performed as described previously (Ernst et al., (2000) Immunol 165:7102-7108). Propionibacterium acnes strain ATCC 6919 (American Type Cell Culture, Manassas, Va.) was grown under anaerobic conditions in Reinforced Clostridial Medium (Oxoid, Basingstroke, England) for two days and collected in mid-log phase. The bacteria were washed three times with the assay buffer, 10 mM sodium phosphate, pH 7.2, supplemented with 0.03% trypticase soy broth (TSB, Becton-Dickinson, Cockeysville, Md.), and enumerated by applying a conversion factor of 7.5×10^7 bacteria/mL=1 OD unit at 600 nm. Various concentrations of granulysin or granulysin peptides were incubated with 3.75×10^5 bacteria in a final volume of 30 μL at 37° C. for four hours. […] Plates were incubated for four days at 37° C. under anaerobic conditions, then individual colonies were counted and the number of CFU per tube was calculated.
# Escherichia coli = settings: earlier study, Ernst et al., 2000; cited from earlier work
# [2] = test system: Mycobacterium tuberculosis; settings: earlier study, Ernst et al., 2000; cited from earlier work
# [3] = test system: inflammatory cytokines and chemokines; assay: P. acnes-stimulated production of cytokines and chemokines by monocytes; format: cell-based; settings: primary human monocytes (FIG. 5)
# Method: (§1) Primary Human Monocyte Isolation and Stimulation. Peripheral human blood was drawn from normal healthy volunteers into heparinized tubes according to a protocol approved by the Institutional Review Board at UCLA. PBMCs were then isolated on Ficoll-Paque gradients (Pharmacia, Piscataway, N.J.) and plated (5×10^5/well) in 96-well plates for 2 hours in 1% FCS (Omega Scientific, Tarzana, Calif.). Non-adherent cells were removed by washing 3 times with RPMI media, leaving adherent cells. Adherent monocytes were cultured in 10% FCS with P. acnes sonicate, granulysin peptides, or P. acnes sonicate together with various concentrations of granulysin peptide for 24 hours at 37° C. Monocyte supernatants were harvested and assayed for IL-12p40 using cytokine-specific, commercially available antibody pairs in a standard sandwich ELISA (Biosource International, Camarillo, Calif., or BD PharMingen, San Diego, Calif.). Capture antibodies were coated to 96-well EIA/RIA plates (Costar, Corning) and detection was achieved by incubating with biotinylated antibodies followed by Immunopure HRP-conjugated streptavidin (Pierce, Rockford, Ill.) and the ABTS Microwell Peroxidase Substrate System (Kirkegaard & Perry Laboratories, Gaithersburg, Md.). The absorbance at 405 nm was read using a microtiter plate reader, and cytokine concentrations were calculated from a standard curve of recombinant cytokine (Biosource or Pharmingen). Supernatants were assayed for other cytokines using Pierce SearchLight Multiplex Cytokine array services (Pierce Biotechnology, Woburn, Mass.).
# IL-12p40 = IL-12p40 ELISA, P. acnes-stimulated primary human monocytes; format: cell-based; settings: compared to peptides 1-20 and 16-35 (FIG. 5A)
# Method: as §1, with “Capture antibodies were coated to 96-well EIA/RIA plates (Costar, Corning) and detection was achieved by incubating with biotinylated antibodies followed by Immunopure HRP-conjugated streptavidin (Pierce, Rockford, Ill.) and the ABTS Microwell Peroxidase Substrate System (Kirkegaard & Perry Laboratories, Gaithersburg, Md.).” left out, “Supernatants were assayed for other cytokines using Pierce SearchLight Multiplex Cytokine array services (Pierce Biotechnology, Woburn, Mass.).” left out
# MCP-1 = assay: Cytokine array, P. acnes-stimulated monocytes, MCP-1; format: cell-based, human
# Method: as §1, with “Capture antibodies were coated to 96-well EIA/RIA plates (Costar, Corning) and detection was achieved by incubating with biotinylated antibodies followed by Immunopure HRP-conjugated streptavidin (Pierce, Rockford, Ill.) and the ABTS Microwell Peroxidase Substrate System (Kirkegaard & Perry Laboratories, Gaithersburg, Md.).” left out, “Supernatants were assayed for other cytokines using Pierce SearchLight Multiplex Cytokine array services (Pierce Biotechnology, Woburn, Mass.).” left out
# IP-10 = assay: Cytokine array, P. acnes-stimulated monocytes, IP-10; format: cell-based, human
# Method: as §1, with “Capture antibodies were coated to 96-well EIA/RIA plates (Costar, Corning) and detection was achieved by incubating with biotinylated antibodies followed by Immunopure HRP-conjugated streptavidin (Pierce, Rockford, Ill.) and the ABTS Microwell Peroxidase Substrate System (Kirkegaard & Perry Laboratories, Gaithersburg, Md.).” left out, “Supernatants were assayed for other cytokines using Pierce SearchLight Multiplex Cytokine array services (Pierce Biotechnology, Woburn, Mass.).” left out
# MDC = assay: Cytokine array, P. acnes-stimulated monocytes, MDC; format: cell-based, human
# Method: as §1, with “Capture antibodies were coated to 96-well EIA/RIA plates (Costar, Corning) and detection was achieved by incubating with biotinylated antibodies followed by Immunopure HRP-conjugated streptavidin (Pierce, Rockford, Ill.) and the ABTS Microwell Peroxidase Substrate System (Kirkegaard & Perry Laboratories, Gaithersburg, Md.).” left out, “Supernatants were assayed for other cytokines using Pierce SearchLight Multiplex Cytokine array services (Pierce Biotechnology, Woburn, Mass.).” left out
# P. acnes = assay: Scanning and transmission electron microscopy of peptide-treated P. acnes; format: cell-based, Propionibacterium acnes; settings: 1 hour to 72 hours of peptide treatment (FIG. 2B, 2C)
# Method: Electron microscopy. P. acnes at a concentration of 2.08×10^7 bacteria/mL was suspended in 10 mM sodium phosphate buffer pH 7.2 supplemented with 0.03% TSB and incubated with […] granulysin peptides. Samples were then fixed for 30 minutes with 2% gluteraldehyde in 1×PBS, pH=7.35, room temperature, then washed three times and suspended in 1 mL 1×PBS. Scanning EM samples were filtered onto a micropore filter. The filters with the sample on top were dehydrated in graded ethanol; 50, 75, 95 and 100%-15 minutes in each, followed by similar transfers in hexa-methyl-disilazane reagent; 50, 75, 95%-30 minutes each followed by 100% hexa-methyl-disilazane reagent overnight. The scanning EM samples were gold coated and then viewed and photographed on a Cambridge Scanning electron microscope. Transmission EM samples were dehydrated in graded ethanol as above, embedded in Epon, and sectioned on Sorvall MT6000 (RMC, Tucson Ariz.). Thin sections ([…]) were stained with uranyl acetate, viewed and photographed on Jeol XC100 at 80-kV
Sequence,reduction of the number of viable P. acnes [1],killing of Escherichia coli (Escherichia coli),killing of Mycobacterium tuberculosis [2],P. acnes-stimulated production of cytokines and chemokines [3],further results
GRDYRTSLTIVQKLKKMVDKPTQRSVSNAATRVSR [1-35],2 logs,capable of killing,capable of killing,,
TGRSRWRDVSRNFMRRYQSRVIQGLVAGETAQQIS [36-70],,capable of killing,capable of killing,,
TRVSRTGRSRWRDVSRNFMR [31-50],4 logs,capable of killing,capable of killing,inhibit,
TRVSRTGRSRWRDWSRNFMR [31-50v44w],,,,inhibit,fewer bacteria as compared to incubation with peptide 31-50 ([1]; 32 μM of peptide (FIG. 2A)): 2-3 logs; P. acnes-stimulated production of IL-12p40 (IL-12p40): decreased; production of MCP-1 (MCP-1): inhibited; production of IP-10 (IP-10): inhibited; production of MDC (MDC): inhibited; effect on P. acnes surface by scanning and transmission EM (P. acnes): perturbs the surface integrity of P. acnes
TRVSRTGRSRWRDWSRNFMR [D-31-50v44w] (all D-amino acids),,,,decreased; also recorded: inhibit,antimicrobial potency in vitro as compared to 31-50v44w (D versus L form) ([1]; P. acnes): even greater potency; kind of antimicrobial activity against P. acnes (bacteriostatic or bactericidal) ([1]; comparison with widely used antibiotics (FIG. 3C)): bactericidal

# — patent US8357365B2, “Granulysin peptides and methods of use thereof” (The Regents of the University of California, priority 2005, dated 2013)
